{"source": "patent US20200069691A1", "about": "“HETEROCYCLIC COMPOUNDS AS HIV PROTEASE INHIBITORS” (Merck Sharp & Dohme Corp., priority 2016, published 2020)", "data": [{"target": "T1, wild-type HIV-1 protease (Human immunodeficiency virus type 1 group M subtype B, UniProt P04585)", "T1 construct": "Escherichia coli expressed wild-type HIV-1 protease protein", "assay": "Assay for Inhibition of Microbial Expressed HIV Protease (peptide substrate cleavage, LC-MS/MS readout)", "format": "biochemical", "conditions": "E. coli expressed wild-type HIV-1 protease, mean of at least two independent experiments, read-out: HIV Pr Enzyme HIV1 PR IC50", "procedure,_shortened": "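E. coli-expressed wild-type HIV-1 protease ([…]) was preincubated with inhibitor 30 min at room temperature in pH 5.5 acetate buffer (100 mM NaCl, 0.1% BSA). Then 400 μM octapeptide substrate was added and reacted 1 h at 30 °C; inhibition came from LC-MS/MS product peak areas, mean of ≥2 experiments.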", "units": {"IC50": "nM"}, "values": [{"smiles": "N=C1NC(c2ccc(F)cc2)(c2ccc(F)cc2)C(=O)N1Cc1cccc(C(=O)N2Cc3nccnc3C2)c1", "note": "[Compound 200, 3-[3-(5,7-dihydro-6H-pyrrolo[3,4-b]pyrazin-6-ylcarbonyl)benzyl]-5,5-bis(4-fluorophenyl)-2-iminoimidazolidin-4-one]", "IC50": 14.2}, {"smiles": "N=C1NC(c2ccccc2)(c2ccc(-c3ccc(F)cc3)cc2)C(=O)N1Cc1cccc(C(=O)N2Cc3nccnc3C2)c1", "note": "(stereo not drawn) [Compound 201, 3-[3-(5,7-dihydro-6H-pyrrolo[3,4-b]pyrazin-6-ylcarbonyl)benzyl]-5-(4′-fluorobiphenyl-4-yl)-2-imino-5-phenylimidazolidin-4-one]", "IC50": 6.32}, {"smiles": "C[C@H](c1cccc(C(=O)N2Cc3cnn(C)c3C2)c1)N1C(=N)NC(c2ccc(F)cc2)(c2ccc(F)cc2)C1=O", "note": "[Compound 202, 5,5-bis(4-fluorophenyl)-2-imino-3-[(1R)-1-{3-[(1-methyl-4,6-dihydropyrrolo [3,4-c]pyrazol-5(1H)-yl)carbonyl]phenyl}-ethyl]imidazolidin-4-one]", "IC50": 6.54}, {"smiles": "N=C1NC(c2ccccc2)(c2ccccc2)C(=O)N1Cc1cccc(C(=O)N2Cc3ccc(F)cc3C2)c1", "note": "[Compound 203, 3-{3-[(5-fluoro-1,3-dihydro-2H-isoindol-2-yl)carbonyl]benzyl}-2-imino-5,5-diphenylimidazolidin-4-one]", "IC50": 6.71}, {"smiles": "CC(C)CCC1(c2ccccc2)NC(=N)N(Cc2cccc(C(=O)N3Cc4ccccc4C3)c2)C1=O", "note": "(stereo not drawn) [Compound 204, 3-[3-(1,3-dihydro-2H-isoindol-2-ylcarbonyl)benzyl]-2-imino-5-(3-methylbutyl)-5-phenylimidazolidin-4-one]", "IC50": 7.38}, {"smiles": "COc1ncc2c(n1)CN(C(=O)c1cccc(CN3C(=N)NC(c4ccc(F)cc4)(c4ccc(F)cc4)C3=O)c1)C2", "note": "[Compound 205, 5,5-bis(4-fluorophenyl)-2-imino-3-{3-[(2-methoxy-5,7-dihydro-6H-pyrrolo[3,4-d]pyrimidin-6-yl)carbonyl]benzyl} imidazolidin-4-one]", "IC50": 7.67}, {"smiles": "Cc1nc2c(s1)CN(C(=O)c1cccc(CN3C(=N)NC(c4ccccc4)(c4ccccc4)C3=O)c1)C2", "note": "[Compound 206, 5-({3-[(2-imino-5-oxo-4,4-diphenylimidazolidin-1-yl)methyl]phenyl}carbonyl)-2-methyl-3,4,5,6-tetrahydropyrrolo[3,4-d][1,3]thiazol-1-ium]", "IC50": 8.2}, {"smiles": "CC(C)CC[C@]1(c2ccccc2)NC(=N)N(Cc2cc(F)cc(C(=O)N3Cc4nccnc4C3)c2)C1=O", "note": "[Compound 207, (5R)-3-[3-(5,7-dihydro-6H-pyrrolo[3,4-b]pyrazin-6-ylcarbonyl)-5-fluorobenzyl]-2-imino-5-(3-methylbutyl)-5-phenylimidazolidin-4-one]", "IC50": 8.35}, {"smiles": "CC(C)CCC1(c2ccccc2)NC(=N)N(Cc2cccc(C(=O)N3Cc4nccnc4C3)c2)C1=O", "note": "(stereo not drawn) [Compound 208, 3-[3-(5,7-dihydro-6H-pyrrolo[3,4-b]pyrazin-6-ylcarbonyl)benzyl]-2-imino-5-(3-methylbutyl)-5-phenylimidazolidin-4-one]", "IC50": 35.2}, {"smiles": "CCOC(=O)c1nc2n(c1Cl)CCN(C(=O)c1cccc(CN3C(=N)NC(c4ccccc4)(c4ccccc4)C3=O)c1)C2", "note": "[Compound 209, ethyl 3-chloro-7-({3-[(2-imino-5-oxo-4,4-diphenylimidazolidin-1-yl)methyl]phenyl}carbonyl)-5,6,7,8-tetrahydroimidazo[1,2-a]pyrazine-2-carboxylate]", "IC50": 8.83}, {"smiles": "CC(C)CC1(c2cccc(F)c2)NC(=N)N(Cc2cccc(C(=O)N3Cc4nccnc4C3)c2)C1=O", "note": "(stereo not drawn) [Compound 210, 3-[3-(5,7-dihydro-6H-pyrrolo[3,4-b]pyrazin-6-ylcarbonyl)benzyl]-5-(3-fluorophenyl)-2-imino-5-(2-methylpropyl)imidazolidin-4-one]", "IC50": 9.12}, {"smiles": "N=C1NC(c2ccc(F)cc2)(c2ccc(F)cc2)C(=O)N1Cc1cccc(C(=O)N2Cc3cnc(C(F)(F)F)nc3C2)c1", "note": "[Compound 211, 5,5-bis(4-fluorophenyl)-2-imino-3-(3-{[2-(trifluoromethyl)-5,7-dihydro-6H-pyrrolo[3,4-d]pyrimidin-6-yl]carbonyl}benzyl) imidazolidin-4-one]", "IC50": 29.1}]}]}
